For data set [1], the system named is HIV-1 (IIIB). The data set is described as follows: Antiviral assay in MT-4 cells (HIV MT-4 antiviral assay). In kind it is cell-based. As to conditions: HIV-1 (IIIB) in MT-4 cells, 5 days incubation, read-out: EC50. The procedure, abridged:
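Read-out is CellTiter-Glo chemiluminescence after 5-day culture at 37° C, giving protection of MT-4 cells from HIV-1 IIIB cytopathicity. Compounds tested in 1:3 dilution series in complete RPMI; controls were no drug, mock infection and 5 μM AZT.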

In data set [2] the test system is uninfected MT-4 cells. The data set is described as follows: Cytotoxicity assay in MT-4 cells. As to conditions: uninfected MT-4 cells, 5 days incubation. It is filed as cell-based, human. The essentials: (§1)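 For cytotoxicity, uninfected MT-4 cells were incubated with compounds 5 days at 37 °C, with 10 μM puromycin marking base cytotoxicity. Parallel plates used HIV-1 IIIB-infected (1:250 stock dilution) or mock cells with 5 μM AZT and no-drug controls. Read-out: CellTiter-Glo chemiluminescence.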

The nature of data set [3]: Cytotoxicity assay in MT-4 cells. It is filed as cell-based, human. The following applies: human, uninfected MT-4 cells, 5 days incubation; read-out: CC50. The essentials: as §1
Data set [4] has as its system pLai RLuc reporter virus. Nature of the data set: microbe, parasite or virus in culture. In kind it is cell-based, HIV. The following applies: Human immunodeficiency virus 1, 72 h. The procedure, abridged: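 Read-out is Renilla luciferase after 72 h at 37 °C in MT-4 cells infected 2 h beforehand with pLai RLuc reporter virus; compounds diluted 1:3.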
Setting [5] is: Human immunodeficiency virus 1, IIIB, MT4, 120 h.
The mark [6] stands for this setting: read-out: Antiviral Serum Shift RLuc 50% HS, HS/CCM (RPMI media, 10% FBS, 50% HS, 1% P/S), 72-h incubation.
Setting [7] is: read-out: Antiviral Serum Shift RLuc CCM, CCM (RPMI media, 10% FBS, 1% P/S), 72-h incubation.

Where two headings read alike, the source gives them in different places. Bounds are passed on as bounds.

By CC50 is commonly meant the concentration that lowers cell viability or growth by half.

Regarding `CC[C@@]12CCCCN(C1)C(=O)c1c(O)c(=O)c(C(=O)NCc3ccc(F)cc3F)cn12` [Example 134-2, (7R)—N-(2,4-difluorobenzyl)-7-ethyl-12-hydroxy-1,11-dioxo-1,4,5,6,7,11-hexahydro-3H-27-methanopyrido[1,2-a][1,4]diazonine-10-carboxamide], in data set [1], the EC50 came to 5.7 nM. In data set [2], this molecule had a cytotoxic concentration (CC50) of 10600 nM.

For the molecule “(7R,13R)—N-(2,4-difluorobenzyl)-12-hydroxy-13-methyl-1,11-dioxo-1,4,5,6,7,11-hexahydro-3H-2,7-methanopyrido[1,2-a][1,4]diazonine-10-carboxamide [Example 7]”, the EC50 in data set [1] was determined as 19.9 nM. Moreover, the CC50 in data set [2] was 25400 nM.

Consider `O=C(NCc1c(F)cc(F)cc1F)c1cn2c(c(O)c1=O)C(=O)N1CC2CCc2ccccc21` (single isomer, unassigned) [Example 38-2], for which the EC50 in data set [1] came out at 0.93 nM. Moreover, the CC50 in data set [2] was 12800 nM.

Turning to `C[C@@H]1C=C[C@H](C)N2C[C@H]1n1cc(C(=O)NCc3ccc(F)cc3F)c(=O)c(O)c1C2=O` [Example 177, (3S,6R,7S)—N-(2,4-difluorobenzyl)-12-hydroxy-3,6-dimethyl-1,11-dioxo-1,6,7,11-tetrahydro-3H-2,7-methanopyrido[1,2-a][1,4]diazonine-10-carboxamide], the EC50 was 0.915 nM in data set [1] (setting [5]), 11.1 nM in data set [4] (setting [6]) and 0.294 nM in data set [4] (setting [7]). The 50% cytotoxic concentration (CC50) at 5 days in data set [3] came to 8540 nM.

Turning to `O=C(NCc1ccc(F)cc1F)c1cn2c(c(O)c1=O)C(=O)N1CC=CC[C@H]2C1` [Example 47-2, (7S)—N-(2,4-difluorobenzyl)-12-hydroxy-1,11-dioxo-1,6,7,11-tetrahydro-3H-2,7-methanopyrido[1,2-a][1,4]diazonine-10-carboxamide], the figures for the EC50 in data set [1] (setting [5]), in data set [4] (setting [6]) and in data set [4] (setting [7]) were 1.16 nM, 1.01 nM and 0.247 nM, respectively. For the same molecule, the CC50 at 5 days in data set [3] came out at 8720 nM.

Consider `C[C@]12CC=CCN(C1)C(=O)c1c(O)c(=O)c(C(=O)NCc3c(F)cc(F)cc3F)cn12` [Example 156, (7S)-12-hydroxy-7-methyl-1,11-dioxo-N-(2,4,6-trifluorobenzyl)-1,6,7,11-tetrahydro-3H-2,7-methanopyrido[1,2-a][1,4]diazonine-10-carboxamide], for which the results for the EC50 in data set [1] (setting [5]), in data set [4] (setting [6]) and in data set [4] (setting [7]) were 1.75 nM, 41.3 nM and 0.187 nM, respectively. The CC50 at 5 days in data set [3] turned out to be 13700 nM.

Regarding `O=C(NCc1c(F)cc(F)cc1F)c1cn2c(c(O)c1=O)C(=O)N1CC[C@@H](F)C[C@@H]2C1` [Example 73-2, (5R, 7R)-5-fluoro-12-hydroxy-1,11-dioxo-N-(2,4,6-trifluorobenzyl)-1,4,5,6,7,11-hexahydro-3H-2,7-methanopyrido[1,2-a][1,4]diazonine-10-carboxamide], the EC50 turned out to be 1.82 nM in data set [1] (setting [5]), 0.919 nM in data set [4] (setting [6]) and 0.283 nM in data set [4] (setting [7]). Also, the CC50 at 5 days in data set [3] was 23100 nM.

Regarding `O=C(NCc1c(F)cc(F)cc1F)c1cn2c(c(O)c1=O)C(=O)N1CC[C@H](O)CC[C@H]2C1` [Example 83-2, (5R,8S)-5,13-dihydroxy-1,12-dioxo-N-(2,4,6-trifluorobenzyl)-1,3,4,5,6,7,8,12-octahydro-2,8-methanopyrido[1,2-a][1,4]diazecine-11-carboxamide], the EC50 was 12.8 nM in data set [1] (setting [5]), 2.08 nM in data set [4] (setting [6]) and 2.15 nM in data set [4] (setting [7]). Further, in data set [3], the CC50 at 5 days is more than 50000 nM.

For the molecule `C[C@@]12CCCCN(C1)C(=O)c1c(O)c(=O)c(C(=O)NCc3c(F)cc(F)cc3F)cn12` [Example 59-2, (7R)-12-hydroxy-7-methyl-1,11-dioxo-N-(2,4,6-trifluorobenzyl)-1,4,5,6,7,11-hexahydro-3H-2,7-methanopyrido[1,2-a][1,4]diazonine-10-carboxamide], the EC50 in data set [1] (setting [5]) stood at 2.15 nM; in data set [4] (setting [6]) it was 55.2 nM; in data set [4] (setting [7]), 0.547 nM. Besides, the cytotoxic concentration (CC50) at 5 days in data set [3] worked out at 18800 nM.

As to `O=C(NCc1c(F)cc(F)c(Cl)c1F)c1cn2c(c(O)c1=O)C(=O)N1CCCC[C@H]2C1` [Example 74, (7S)—N-(3-chloro-2,4,6-trifluorobenzyl)-12-hydroxy-1,11-dioxo-1,4,5,6,7,11-hexahydro-3H-2,7-methanopyrido[1,2-a][1,4]diazonine-10-carboxamide], the EC50 is 1.52 nM in data set [1] (setting [5]), 13.8 nM in data set [4] (setting [6]) and 0.492 nM in data set [4] (setting [7]). For the same molecule, the CC50 at 5 days in data set [3] is 7280 nM.

Take `O=C(NCc1c(F)cc(F)cc1F)c1cn2c(c(O)c1=O)C(=O)N1Cc3cc(F)c(F)cc3C[C@@H]2C1` (single isomer, unassigned) [Example 159]: the EC50 in data set [1] (setting [5]) is 3.52 nM; in data set [4] (setting [6]), 2.56 nM; in data set [4] (setting [7]), 0.976 nM. Besides, the CC50 at 5 days in data set [3] is more than 43600 nM.

For the molecule `O=C(NCc1c(F)cc(F)cc1F)c1cn2c(c(O)c1=O)C(=O)N1CCOC[C@H]2C1` [Example 20, (7R)-12-Hydroxy-1,11-dioxo-N-(2,4,6-trifluorobenzyl)-1,3,4,6,7,11-hexahydro-2,7-methanopyrido[1,2-d][1,4,7]oxadiazonine-10-carboxamide], the EC50 turned out to be 5.6 nM in data set [1] (setting [5]), 33.4 nM in data set [4] (setting [6]) and 1.83 nM in data set [4] (setting [7]). Also, the CC50 at 5 days in data set [3] turned out to be 37200 nM.

On to `O=C(NCc1c(F)cc(F)cc1F)c1cn2c(c(O)c1=O)C(=O)N1Cc3ccccc3C[C@H]2C1` [Example 70, (6S)-1-hydroxy-2,14-dioxo-N-(2,4,6-trifluorobenzyl)-2,7,12,14-tetrahydro-6H-6,13-methanobenzo[f]pyrido[1,2-a][1,4]diazonine-3-carboxamide], for which the EC50 amounted to 1.41 nM in data set [1] (setting [5]), 1.32 nM in data set [4] (setting [6]) and 0.322 nM in data set [4] (setting [7]). The CC50 at 5 days in data set [3] amounted to 13300 nM.

`C[C@@H]1CC[C@H](C)[C@@H]2CN1C(=O)c1c(O)c(=O)c(C(=O)NCc3c(F)cc(F)cc3F)cn12` [Example 151-1, (3R,6S,7R)-12-hydroxy-3,6-dimethyl-1,11-dioxo-N-(2,4,6-trifluorobenzyl)-1,4,5,6,7,11-hexahydro-3H-2,7-methanopyrido[1,2-a][1,4]diazonine-10-carboxamide]: the values for the EC50 in data set [1] (setting [5]), in data set [4] (setting [6]) and in data set [4] (setting [7]) were 4.27 nM, 1140 nM and 0.729 nM, respectively. The CC50 at 5 days in data set [3] came out at 14700 nM.

As to `O=C(NCc1ccc(F)cc1F)c1cn2c(c(O)c1=O)C(=O)N1CCC=C[C@H]2C1` [Example 169, (7S)—N-(2,4-difluorobenzyl)-12-hydroxy-1,11-dioxo-1,4,7,11-tetrahydro-3H-2,7-methanopyrido[1,2-a][1,4]diazonine-10-carboxamide], the results for the EC50 in data set [1] (setting [5]), in data set [4] (setting [6]) and in data set [4] (setting [7]) were 1.4 nM, 2.89 nM and 0.322 nM, respectively. In addition, the CC50 at 5 days in data set [3] came to 11800 nM.

`O=C(NCc1c(F)cc(F)cc1F)c1cn2c(c(O)c1=O)C(=O)N1CCC[C@H]3C[C@@]32C1` [Example 66-2, (1aS,11aS)—N-(2,4,6-trifluorobenzyl)-7-hydroxy-6,8-dioxo-1a,2,3,4,6,8-hexahydro-1H-5,11a-methanocyclopropa[h]pyrido[1,2-a][1,4]diazonine-9-carboxamide]: the EC50 in data set [1] (setting [5]) came out at 1.68 nM; in data set [4] (setting [6]) it was 4.55 nM; in data set [4] (setting [7]), 0.294 nM. In addition, in data set [3], the CC50 at 5 days amounted to 10400 nM.

As for `O=C(NCc1c(F)cc(F)cc1F)c1cn2c(c(O)c1=O)C(=O)N1CCC[C@@H](Cl)[C@H]2C1` (single isomer, unassigned) [Example 72-2], the EC50 was 4.27 nM in data set [1] (setting [5]), 34 nM in data set [4] (setting [6]) and 0.267 nM in data set [4] (setting [7]). Also, in data set [3], the CC50 at 5 days amounted to 12100 nM.

For the origin of these results see US12227520B2 (priority 2019, dated 2025).
